This test relates to tumor cells (HCT-116, HT-29). The test can be described thus: Cytokine profiling of tumor cell culture supernatant (Luminex 200). In kind it is cell-based, human. The note with it: 48 hours. As for the experimental part: Cells were plated at 3.5×10^4 cells in a 48-well plate (Thermo Fisher Scientific, Waltham, MA, USA) in complete medium and incubated at 37° C. with 5% CO2. At 24 hours after plating, almost all the tumor cells were adherent to the bottom of the flask and the complete medium was replaced with the drug-containing medium. Subsequently, the culture supernatants were collected after 48 hours of incubation and were frozen at −80° C. until the measurement of cytokines was performed. On the day of analysis, samples were thawed and centrifuged to remove cellular debris.
Human cell line culture supernatants were analyzed using an R&D systems Human Premixed Multi-Analyte Kit (R&D Systems, Inc., Minneapolis, MN, USA) and a Luminex 200 (RRID: SCR_018025) Instrument (LX200-XPON-RUO, Luminex Corporation, Austin, TX, USA) according to the manufacturer's instructions. Sample levels of TNF-α, 4-1BB/TNFRSF9/CD137, IL-8/CXCL8, Ferritin, IFN-β, IL-10, CCL2/JE/MCP-1, VEGF, CXCL13/BLC/BCA-1, IFN-γ, CCL20/MIP-3 α, CCL3/MIP-1 α, CCL22/MDC, CCL4/MIP-1 β, Fas Ligand/TNFSF6, IL-17/IL-17A, IL-2, BAFF/BLyS/TNFSF13B, GM-CSF, CXCL5/ENA-78, TRANCE/TNFSF11/RANK L, CXCL9/MIG, G-CSF, IFN-γ R1/CD119, VEGFR3/Flt-4, C-Reactive Protein/CRP, CXCL11/I-TAC, IL-21, CXCL14/BRAK, IL-6, Fas/TNFRSF6/CD95, TRAIL R3/TNFRSF10C, IL-4, CCL5/RANTES, PD-L1/B7-H1, CCL7/MCP-3/MARC, Chitinase 3-like 1, CXCL10/IP-10/CRG-2, IL-1 β/IL-1F2, IL-7, Prolactin, CCL8/MCP-2, TRAIL R2/TNFRSF10B, M-CSF, IL-15, Granzyme B, IFN-α, TREM-1, IL-12/IL-23 p40, TRAIL/TNFSF10, CCL11/Eotaxin, and IL-18/IL-1F4. Quantitative analysis with 6 standards and a minimum of 50 counts per bead region was used with the Luminex to generate analyte values reported as picograms/milliliter (pg/mL). Sample concentrations less than the lower limit of detection for each particular analyte were recoded as the lower limit value divided by ten. Sample concentrations above the upper limit of detection for a particular analyte were recoded as the upper limit of detection.

The values that follow come from patent US20260256741A1, “ANTICANCER MALEIMIDE DERIVATIVES FOR USE WITH IMMUNE CHECKPOINT BLOCKADE” (BROWN UNIVERSITY, priority 2022, published 2026).

As to `Cn1cc(C2=C(c3coc4ccc(F)cc34)C(=O)NC2=O)c2cc3c(cc21)OCO3` [elraglusib, 3-(5-fluorobenzofuran-3-yl)-4-(5-methyl-5H-[1,3]dioxolo[4,5-f]indol-7-yl)-1H-pyrrole-2,5-dione], for the setting “1 μM or 5 μM”, the CCL5/RANTES secretion result is “downregulated post-treatment”, the DcR3 secretion result is given as “downregulated post-treatment”, the Fas secretion result is recorded as “downregulated post-treatment” and the “soluble PD-L1 (sPD-L1) secretion” value is given as “downregulated post-treatment”. Moreover, where the note is “both cell lines, 1 μM and 5 μM”, the GDF-15 secretion entry is on record as “decreased secretion”, the GM-CSF secretion result is listed as “decreased secretion” and the VEGF secretion result was “decreased secretion”.
